Measured values: US6689773B2, “Uracil substituted phenyl sulfamoyl carboxamides” (BASF Aktiengesellschaft, priority 2000, dated 2004)

Key:
Type in all cases: in vivo
[1] = test system: ECHCG, Barnyardgrass, Echinochloa crusgalli, (L.)Beau; assay: Preemergence herbicidal evaluation (Example 148); conditions: rating scale 0-9, two to four weeks after treatment
How it was run: (§1)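 Following sowing, cups received a soil spray of the compound dissolved in aqueous acetone, dosed to about 0.125 to 0.250 kg per hectare. Growth continued in the greenhouse under routine care before visual scoring at two to four weeks.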

[2] = test system: CHEAL, Lambsquarters, Chenopodium album, L. Common; assay: Preemergence herbicidal evaluation (Example 148); conditions: rating scale 0-9, two to four weeks after treatment
How it was run: as §1

[3] = test system: ZEAMX, Field corn, Zea mays L.; assay: Preemergence herbicidal evaluation (Example 148); conditions: rating scale 0-9, two to four weeks after treatment
How it was run: as §1

[4] = test system: AMBEL, Ragweed, Common, Ambrosia artemiisifolia, L.; assay: Preemergence herbicidal evaluation (Example 148); conditions: rating scale 0-9, two to four weeks after treatment
How it was run: as §1

[5] = test system: GLXMA, Soybean, Glycine max, (L.) Merr.; assay: Preemergence herbicidal evaluation (Example 148); conditions: rating scale 0-9, two to four weeks after treatment
How it was run: as §1

[6] = test system: DIGSA, Crabgrass, (Hairy) L, Digitaria sanguinalis, (L)Scop; assay: Preemergence herbicidal evaluation (Example 148); conditions: rating scale 0-9, two to four weeks after treatment
How it was run: as §1

[7] = test system: TRZAW, Winter wheat, Tritium Aestivum, L. (Winter); assay: Preemergence herbicidal evaluation (Example 148); conditions: rating scale 0-9, two to four weeks after treatment
How it was run: as §1

[8] = test system: ALOMY, Blackgrass, Alopecurus myosuroides; assay: Preemergence herbicidal evaluation (Example 148); conditions: rating scale 0-9, two to four weeks after treatment
How it was run: as §1

[9] = test system: XANST, Cocklebur, Xanthium strumariam; assay: Preemergence herbicidal evaluation (Example 148); conditions: rating scale 0-9, two to four weeks after treatment
How it was run: as §1

[10] = test system: IPOHE, Morningglory, Ivyleaf, Ipomoea hederacea, (L)Jacq.; assay: Preemergence herbicidal evaluation (Example 148); conditions: rating scale 0-9, two to four weeks after treatment
How it was run: as §1

[11] = test system: ABUTH, Velvetleaf, Abutilon theophrasti, Medic.; assay: Preemergence herbicidal evaluation (Example 148); conditions: rating scale 0-9, two to four weeks after treatment
How it was run: as §1

[12] = test system: SETVI, Green foxtail, Setaria viridis, (L.)Beau; assay: Preemergence herbicidal evaluation (Example 148); conditions: rating scale 0-9, two to four weeks after treatment
How it was run: as §1

[13] = test system: ECHCG, Barnyardgrass, Echinochloa crusgalli, (L.)Beau; assay: Postemergence herbicidal evaluation (Example 147); conditions: rating scale 0-9, two to three weeks after treatment
How it was run: (§2)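 Greenhouse postemergence test: two-week seedlings sprayed at about 0.016 to 0.032 kg/ha active. Scored visually, 0-9 scale, after two to three weeks.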

[14] = test system: CHEAL, Lambsquarters, Chenopodium album, L. Common; assay: Postemergence herbicidal evaluation (Example 147); conditions: rating scale 0-9, two to three weeks after treatment
How it was run: as §2

[15] = test system: ZEAMX, Field corn, Zea mays L.; assay: Postemergence herbicidal evaluation (Example 147); conditions: rating scale 0-9, two to three weeks after treatment
How it was run: as §2

[16] = test system: AMBEL, Ragweed, Common, Ambrosia artemiisifolia, L.; assay: Postemergence herbicidal evaluation (Example 147); conditions: rating scale 0-9, two to three weeks after treatment
How it was run: as §2

[17] = test system: GLXMA, Soybean, Glycine max, (L.) Merr.; assay: Postemergence herbicidal evaluation (Example 147); conditions: rating scale 0-9, two to three weeks after treatment
How it was run: as §2

[18] = test system: DIGSA, Crabgrass, (Hairy) L, Digitaria sanguinalis, (L)Scop; assay: Postemergence herbicidal evaluation (Example 147); conditions: rating scale 0-9, two to three weeks after treatment
How it was run: as §2

[19] = test system: TRZAW, Winter wheat, Tritium Aestivum, L. (Winter); assay: Postemergence herbicidal evaluation (Example 147); conditions: rating scale 0-9, two to three weeks after treatment
How it was run: as §2

[20] = test system: ALOMY, Blackgrass, Alopecurus myosuroides; assay: Postemergence herbicidal evaluation (Example 147); conditions: rating scale 0-9, two to three weeks after treatment
How it was run: as §2

[21] = test system: XANST, Cocklebur, Xanthium strumariam; assay: Postemergence herbicidal evaluation (Example 147); conditions: rating scale 0-9, two to three weeks after treatment
How it was run: as §2

[22] = test system: IPOHE, Morningglory, Ivyleaf, Ipomoea hederacea, (L)Jacq.; assay: Postemergence herbicidal evaluation (Example 147); conditions: rating scale 0-9, two to three weeks after treatment
How it was run: as §2

[23] = test system: ABUTH, Velvetleaf, Abutilon theophrasti, Medic.; assay: Postemergence herbicidal evaluation (Example 147); conditions: rating scale 0-9, two to three weeks after treatment
How it was run: as §2

[24] = test system: SETVI, Green foxtail, Setaria viridis, (L.)Beau; assay: Postemergence herbicidal evaluation (Example 147); conditions: rating scale 0-9, two to three weeks after treatment
How it was run: as §2

CCCN(CC)S(=O)(=O)NC(=O)c1cc(-n2c(=O)cc(C(F)(F)F)n(C)c2=O)c(F)cc1Cl [Example 62]
5.0: Preemergence herbicidal rating GLXMA ([5]; rate 0.125 kg/ha) | Preemergence herbicidal rating DIGSA ([6]; rate 0.125 kg/ha) | Preemergence herbicidal rating TRZAW ([7]; rate 0.25 kg/ha) | Postemergence herbicidal rating DIGSA ([18]; rate 0.016 kg/ha) | Postemergence herbicidal rating DIGSA ([18]; rate 0.032 kg/ha)
7.0: Preemergence herbicidal rating DIGSA ([6]; rate 0.25 kg/ha) | Preemergence herbicidal rating SETVI ([12]; rate 0.25 kg/ha) | Postemergence herbicidal rating ECHCG ([13]; rate 0.032 kg/ha) | Postemergence herbicidal rating CHEAL ([14]; rate 0.016 kg/ha)
6.0: Preemergence herbicidal rating ECHCG ([1]; rate 0.25 kg/ha) | Postemergence herbicidal rating ECHCG ([13]; rate 0.016 kg/ha) | Postemergence herbicidal rating SETVI ([24]; rate 0.016 kg/ha) | Postemergence herbicidal rating SETVI ([24]; rate 0.032 kg/ha)
6.5: Postemergence herbicidal rating ZEAMX ([15]; rate 0.016 kg/ha) | Postemergence herbicidal rating ZEAMX ([15]; rate 0.032 kg/ha) | Postemergence herbicidal rating TRZAW ([19]; rate 0.032 kg/ha)
8.0: Postemergence herbicidal rating CHEAL ([14]; rate 0.032 kg/ha) | Postemergence herbicidal rating GLXMA ([17]; rate 0.016 kg/ha) | Postemergence herbicidal rating GLXMA ([17]; rate 0.032 kg/ha)
3.0: Preemergence herbicidal rating ECHCG ([1]; rate 0.125 kg/ha) | Preemergence herbicidal rating TRZAW ([7]; rate 0.125 kg/ha) | Preemergence herbicidal rating SETVI ([12]; rate 0.125 kg/ha)
9.0: Preemergence herbicidal rating CHEAL ([2]; rate 0.125 kg/ha) | Preemergence herbicidal rating CHEAL ([2]; rate 0.25 kg/ha) | Preemergence herbicidal rating AMBEL ([4]; rate 0.125 kg/ha) | Preemergence herbicidal rating AMBEL ([4]; rate 0.25 kg/ha) | Preemergence herbicidal rating GLXMA ([5]; rate 0.25 kg/ha) | Preemergence herbicidal rating XANST ([9]; rate 0.125 kg/ha) | Preemergence herbicidal rating XANST ([9]; rate 0.25 kg/ha) | Preemergence herbicidal rating IPOHE ([10]; rate 0.125 kg/ha) | Preemergence herbicidal rating IPOHE ([10]; rate 0.25 kg/ha) | Preemergence herbicidal rating ABUTH ([11]; rate 0.125 kg/ha) | Preemergence herbicidal rating ABUTH ([11]; rate 0.25 kg/ha) | Postemergence herbicidal rating AMBEL ([16]; rate 0.016 kg/ha) | Postemergence herbicidal rating AMBEL ([16]; rate 0.032 kg/ha) | Postemergence herbicidal rating XANST ([21]; rate 0.016 kg/ha) | Postemergence herbicidal rating XANST ([21]; rate 0.032 kg/ha) | Postemergence herbicidal rating IPOHE ([22]; rate 0.016 kg/ha) | Postemergence herbicidal rating IPOHE ([22]; rate 0.032 kg/ha) | Postemergence herbicidal rating ABUTH ([23]; rate 0.016 kg/ha) | Postemergence herbicidal rating ABUTH ([23]; rate 0.032 kg/ha)
0.0: Preemergence herbicidal rating ALMOY ([8]; rate 0.125 kg/ha) | Preemergence herbicidal rating ALMOY ([8]; rate 0.25 kg/ha)
5.5: Postemergence herbicidal rating TRZAW ([19]; rate 0.016 kg/ha)
2.0: Postemergence herbicidal rating ALMOY ([20]; rate 0.016 kg/ha) | Postemergence herbicidal rating ALMOY ([20]; rate 0.032 kg/ha)
1.0: Preemergence herbicidal rating ZEAMX ([3]; rate 0.125 kg/ha) | Preemergence herbicidal rating ZEAMX ([3]; rate 0.25 kg/ha)

Cn1c(C(F)(F)F)cc(=O)n(-c2cc(C(=O)NS(=O)(=O)NCc3cccs3)c(Cl)cc2F)c1=O [Example 77]
3.0: Preemergence herbicidal rating ECHCG ([1]; rate 0.25 kg/ha) | Preemergence herbicidal rating XANST ([9]; rate 0.125 kg/ha)
5.0: Postemergence herbicidal rating TRZAW ([19]; rate 0.032 kg/ha) | Postemergence herbicidal rating SETVI ([24]; rate 0.016 kg/ha)
0.0: Preemergence herbicidal rating ZEAMX ([3]; rate 0.125 kg/ha) | Preemergence herbicidal rating TRZAW ([7]; rate 0.125 kg/ha) | Preemergence herbicidal rating TRZAW ([7]; rate 0.25 kg/ha) | Preemergence herbicidal rating ALMOY ([8]; rate 0.125 kg/ha) | Preemergence herbicidal rating ALMOY ([8]; rate 0.25 kg/ha)
7.5: Postemergence herbicidal rating GLXMA ([17]; rate 0.016 kg/ha) | Postemergence herbicidal rating GLXMA ([17]; rate 0.032 kg/ha)
6.0: Postemergence herbicidal rating ECHCG ([13]; rate 0.032 kg/ha) | Postemergence herbicidal rating CHEAL ([14]; rate 0.016 kg/ha) | Postemergence herbicidal rating ZEAMX ([15]; rate 0.016 kg/ha) | Postemergence herbicidal rating SETVI ([24]; rate 0.032 kg/ha)
1.0: Preemergence herbicidal rating ZEAMX ([3]; rate 0.25 kg/ha) | Preemergence herbicidal rating GLXMA ([5]; rate 0.125 kg/ha) | Postemergence herbicidal rating ALMOY ([20]; rate 0.016 kg/ha) | Postemergence herbicidal rating ALMOY ([20]; rate 0.032 kg/ha)
9.0: Preemergence herbicidal rating CHEAL ([2]; rate 0.125 kg/ha) | Preemergence herbicidal rating CHEAL ([2]; rate 0.25 kg/ha) | Preemergence herbicidal rating AMBEL ([4]; rate 0.125 kg/ha) | Preemergence herbicidal rating AMBEL ([4]; rate 0.25 kg/ha) | Preemergence herbicidal rating IPOHE ([10]; rate 0.25 kg/ha) | Preemergence herbicidal rating ABUTH ([11]; rate 0.125 kg/ha) | Preemergence herbicidal rating ABUTH ([11]; rate 0.25 kg/ha) | Postemergence herbicidal rating XANST ([21]; rate 0.016 kg/ha) | Postemergence herbicidal rating XANST ([21]; rate 0.032 kg/ha) | Postemergence herbicidal rating IPOHE ([22]; rate 0.016 kg/ha) | Postemergence herbicidal rating IPOHE ([22]; rate 0.032 kg/ha) | Postemergence herbicidal rating ABUTH ([23]; rate 0.016 kg/ha) | Postemergence herbicidal rating ABUTH ([23]; rate 0.032 kg/ha)
7.0: Preemergence herbicidal rating IPOHE ([10]; rate 0.125 kg/ha) | Postemergence herbicidal rating CHEAL ([14]; rate 0.032 kg/ha)
4.5: Postemergence herbicidal rating TRZAW ([19]; rate 0.016 kg/ha)
4.0: Preemergence herbicidal rating DIGSA ([6]; rate 0.25 kg/ha) | Postemergence herbicidal rating ECHCG ([13]; rate 0.016 kg/ha) | Postemergence herbicidal rating DIGSA ([18]; rate 0.016 kg/ha) | Postemergence herbicidal rating DIGSA ([18]; rate 0.032 kg/ha)
6.5: Postemergence herbicidal rating ZEAMX ([15]; rate 0.032 kg/ha)
8.0: Preemergence herbicidal rating XANST ([9]; rate 0.25 kg/ha) | Postemergence herbicidal rating AMBEL ([16]; rate 0.016 kg/ha) | Postemergence herbicidal rating AMBEL ([16]; rate 0.032 kg/ha)
2.0: Preemergence herbicidal rating ECHCG ([1]; rate 0.125 kg/ha) | Preemergence herbicidal rating DIGSA ([6]; rate 0.125 kg/ha) | Preemergence herbicidal rating SETVI ([12]; rate 0.125 kg/ha) | Preemergence herbicidal rating SETVI ([12]; rate 0.25 kg/ha)
